Data on 19 molecules can be found in patent US20220220106A1, “QUINOLINE COMPOUNDS AND PHARMACEUTICAL COMPOSITIONS AND USES THEREOF” (Academy of Military Medical Sciences, priority 2019, published 2022).

In data set [1] the test system is Enterovirus 71 (EV71) H strain. In words: In vitro anti-EV71 activity (antiviral activity in RD cells, CellTiter-Glo). It is filed as cell-based. To be noted: for IC50: Enterovirus A, 96 h, EV71 H strain, RD cells, 4 days, CellTiter-Glo, read-out: IC50; for in vitro anti-EV71 activity, in words: EV71, RD cells. As for the experimental part: According to the mass and molecular weight of the compound to be tested, the compound to be tested was dissolved to 100 mM (mmol/L) with DMSO.
Detection of Antiviral Activity:
(1) First, the compound to be tested was diluted to 800 μM with cell maintenance solution (DMEM+2% FBS, Gibco, catalog numbers: 11995-065, 1600-044), and three-fold gradient dilution was performed to prepare 10 concentrations in total. The diluted compound was added to a 96-well plate with white wall and transparent bottom, 50 μl per well. To both the cell control group and the virus control group, an equal volume of the cell maintenance solution was added.
(2) EV71 virus (purchased from ATCC) was taken out from the −80° C. refrigerator and equilibrated to room temperature.
(3) The virus seed was diluted with a virus growth solution (DMEM+2% FBS, Gibco, catalog numbers: 11995-065, 1600-044) to 100TCID50, the diluted virus seed was added to the 96-well plate of (1), with […] per well. The same volume of the virus growth solution was added to the cell control group.
(4) RD cells (purchased from ATCC) were inoculated at a concentration of 1*10^5/mL into the 96-well plate of (1), with 100 μL per well, to reach a final volume of 200 μL per well. The final concentration of drug was 0.25 times the initial concentration.
(5) RD cells were cultured at 37° C. for 4 days for testing.
(6) The Buffer of CellTiter-Glo® luminescent cell viability assay reagent (Promega) was mixed with the substrate in the dark to prepare a working solution.
(7) The culture medium in the plate was discarded, the plate was dried by patting, 100 μL of the detection reagent was added to each well, and the 96-well plate was shaken on an orbital shaker for 4 minutes to induce cell lysis. After keeping in the dark and subjecting to signal stabilization for 15 minutes, the chemiluminescence unit was detected by using MD5 microplate reader (Molecular Devices), and the plate reading program was performed according to the CellTiter-Glo preset program.
The inhibition rate-concentration curve was fitted to S-curve by using origin8.0 software to calculate the IC50 value of the compound to be tested.
(§1) The formula for calculating the inhibition rates of drug at different dilution degrees was as follows: inhibition rate (%)=(average value of cell control group−value of experimental group)/(average value of cell control group−minimum value of experimental group)*100
(§2) The inhibition rate-concentration curve was fitted to S-curve by using origin8.0 software, and the IC50 value of the compound to be tested was calculated. The same method was used to calculate the TD50 value, and the selection index SI=TD50/IC50 was calculated according to the half maximal inhibitory concentration IC50 and the median toxic dose TD50.
(In general: ATP-based viability assays read luminescence as a measure of living cells.)

Another data set relates to RD cells. In words: Detection of cytotoxicity in RD cells (CellTiter-Glo). Type of data set: cell-based. The conditions noted are these: 4 days, CellTiter-Glo, median toxic dose. As for the experimental part:
Detection of Cytotoxicity:
(1) The compound to be tested was diluted to a concentration of 400 μM with the cell maintenance solution, and 3-fold gradient dilution was carried out to obtain 10 concentrations in total.
(2) The diluted compound was added to a 96-well plate with white wall and transparent bottom, with 100 μL per well. An equal volume of the cell maintenance solution was added to the cell control group.
(3) RD cells were inoculated into the above 96-well plate at a concentration of 1*10^5/mL, with 100 μL per well, to reach a final volume of 200 μL per well, and the final concentration of drug was 0.5 times the pretreatment concentration.
(4) The RD cells were cultured at 37° C. for 4 days for testing.
(5) The Buffer of CellTiter-Glo® luminescent cell viability assay reagent was mixed with the substrate in the dark to prepare a working solution.
(6) The culture medium in the plate was discarded, the plate was dried by patting, 100 μL of the detection reagent was added to each well, and the 96-well plate was shaken on an orbital shaker for 4 minutes to induce cell lysis. After keeping in the dark and subjecting to signal stabilization for 15 minutes, the chemiluminescence unit was detected, and the plate reading program was performed according to the CellTiter-Glo preset program.
as §1, §2

In general, IC50 refers to the concentration that inhibits the measured activity by half. Usually melting point stands for the temperature, or range, at which the solid turns liquid. The molecule `CC(=O)/C=C/c1cnc2ccc(-c3ccncc3)cc2c1Nc1cccc(C(F)(F)F)c1` [HTL-3-04, (E)-6-(4-pyridyl)-4-[3-(trifluoromethyl)phenyl]aminoquinoline-3-butenone] had a melting point of 192 to 195 °C. The IC50 in data set [1] is > 200 µM. The TD50 in the data set with RD cells was >200 µM.
Molecule `O=c1ccc2cnc3ccc(Nc4ccc(F)nc4)cc3c2n1-c1cccc(C(F)(F)F)c1` [HTL-6-20, 9-[3-(6-fluoropyridyl)]imino-2-oxo-1-[3-(trifluoromethyl)phenyl]-1,2-dihydrobenzo[h][1,6]naphthyridine] displayed a melting point of 232 to 233 °C. The IC50 in data set [1] is > 200 µM. In the data set on RD cells, this molecule gave a TD50 of 59.31 ± 3.98 µM.
Molecule `Nc1cncc(Nc2ccc3ncc4ccc(=O)n(-c5cccc(C(F)(F)F)c5)c4c3c2)c1` [HTL-6-29, 9-[3-(5-aminopyridyl)]imino-2-oxo-1-[3-(trifluoromethyl)phenyl]-1,2-dihydrobenzo[h][1,6]naphthyridine] came in with a melting point of 156 to 158 °C. For the same molecule, in data set [1], the “in vitro anti-EV71 activity, in words” value is listed as “moderate activity” and the IC50 amounted to 1.75 ± 0.41 µM. The molecule also had a TD50 in the data set with RD cells of 28.65 ± 1.67 µM.
For `Nc1ccc(-c2ccc3ncc4oc(=O)n(-c5cccc(C(F)(F)F)c5)c4c3c2)cn1` [HTL-4-32, 8-[3-(6-amino)pyridyl]-1-[3-(trifluoromethyl)phenyl]oxazolo[5,4-c]quinolin-2(1H)-one] the same measures were 146 to 147 °C, “moderate inhibitory activity”, 5.57 ± 1.53 µM and 14.5 ± 6.4 µM.
`Cc1ccc(Nc2ccc3ncc4ccc(=O)n(-c5cccc(C(F)(F)F)c5)c4c3c2)cc1C` [HTL-6-17, 9-(3,4-dimethylphenyl)imino-2-oxo-1-[3-(trifluoromethyl)phenyl]-1,2-dihydrobenzo[h][1,6]naphthyridine] showed a melting point of 140 to 141 °C. In addition, the IC50 in data set [1] is > 200 µM. In addition, in the data set on RD cells, the TD50 was found to be 6.81 ± 1.03 µM.
Molecule `CC(=O)/C=C/c1cnc2ccc(-c3ccc(Cl)cc3)cc2c1Nc1cccc(C(F)(F)F)c1` [HTL-3-37, (E)-6-(4-chloro)phenyl-4-[3-(trifluoromethyl)phenyl]aminoquinoline-3-butenone] gave a melting point of 197 to 199 °C. In addition, the IC50 in data set [1] was > 200 µM. In the data set on RD cells, the TD50 was 1.88 ± 0.46 µM.
`Cc1cc(Nc2ccc3ncc4ccc(=O)n(-c5cccc(C(F)(F)F)c5)c4c3c2)ccc1F` [HTL-6-24, 9-[(4-fluoro-3-methyl)phenyl]imino-2-oxo-1-[3-(trifluoromethyl)phenyl]-1,2-dihydrobenzo[h][1,6]naphthyridine] gave a melting point of 210 to 211 °C. Further, in data set [1], the IC50 is > 200 µM. Moreover, the TD50 in the data set on RD cells worked out at 7.2 ± 0.33 µM.
As to `COc1ccc(Nc2ccc3ncc4ccc(=O)n(-c5cccc(C(F)(F)F)c5)c4c3c2)cc1` [HTL-6-26, 9-(4-methoxyphenyl)imino-2-oxo-1-[3-(trifluoromethyl)phenyl]-1,2-dihydrobenzo[h][1,6]naphthyridine], the melting point lay within 138 to 140 °C. Further, in data set [1], the 50% inhibitory concentration (IC50) is > 200 µM. Besides, the TD50 in the data set with RD cells is >200 µM.
The like results for `CCCc1ccc(-c2ccc3ncc4oc(=O)n(-c5cccc(C(F)(F)F)c5)c4c3c2)cc1` [HTL-5-34, 8-(4-propyl)phenyl-1-[3-(trifluoromethyl)phenyl]oxazolo[5,4-c]quinolin-2(1H)-one] were, in that order, 220 to 221 °C, > 200 µM and >200 µM.
For `COc1cncc(-c2ccc3ncc4oc(=O)n(-c5cccc(C(F)(F)F)c5)c4c3c2)c1` [HTL-5-30, 8-[3-(5-methoxy)pyridyl]-1-[3-(trifluoromethyl)phenyl]oxazolo[5,4-c]quinolin-2(1H)-one] the same measures were 257 to 258 °C, > 200 µM and 68.52 ± 0.42 µM.
In turn, `CC(=O)/C=C/c1cnc2ccc(-c3ccc(F)cc3)cc2c1Nc1cccc(C(F)(F)F)c1` [HTL-3-12, (E)-6-(4-fluoro)phenyl-4-[3-(trifluoromethyl)phenyl]aminoquinoline-3-butenone] displayed a melting point of 167 to 169 °C. The IC50 in data set [1] is > 200 µM. In addition, the TD50 in the data set on RD cells is >200 µM.
For `CC(=O)/C=C/c1cnc2ccc(-c3cnc4ccccc4c3)cc2c1Nc1cccc(C(F)(F)F)c1` [HTL-3-25, (E)-6-(3-quinolyl)-4-[3-(trifluoromethyl)phenyl]aminoquinoline-3-butenone], the melting point was in the range of 173 to 176 °C. Also, the concentration for half-maximal inhibition (IC50) in data set [1] was > 200 µM. Further, in the data set with RD cells, the TD50 was 0.68 ± 0.21 µM.
For `N#Cc1cncc(-c2ccc3ncc4oc(=O)n(-c5cccc(C(F)(F)F)c5)c4c3c2)c1` [HTL-5-36, 8-[3-(5-cyano)pyridyl]-1-[3-(trifluoromethyl)phenyl]oxazolo[5,4-c]quinolin-2(1H)-one] the same measures were 262 to 263 °C, > 200 µM and 13.41 ± 0.18 µM.
`COC(=O)/C=C/c1ccc2ncc3oc(=O)n(-c4cccc(C(F)(F)F)c4)c3c2c1` [HTL-6-33, (E)-8-(2-methoxycarbonyl-vinyl)-1-[3-(trifluoromethyl)phenyl]oxazolo[5,4-c]quinolin-2(1H)-one]: the melting point lay in the range of 243 to 245 °C. In addition, the concentration for half-maximal inhibition (IC50) in data set [1] was > 200 µM. Also, the TD50 in the data set on RD cells came out at 71.99 ± 0.78 µM.
As to `CCOC(=O)/C=C/c1ccc2ncc3oc(=O)n(-c4cccc(C(F)(F)F)c4)c3c2c1` [WSX-1-13, (E)-8-(2-ethoxycarbonyl-vinyl)-1-[3-(trifluoromethyl)phenyl]oxazolo[5,4-c]quinolin-2(1H)-one], the melting point lay within 221 to 224 °C. Also, in data set [1], the “in vitro anti-EV71 activity, in words” value is “weak inhibitory activity” and the IC50 amounted to 100 ± 2.34 µM. Moreover, the TD50 in the data set with RD cells amounted to 73.88 ± 3.52 µM.
With `CC(=O)/C=C/c1cnc2ccc(-c3ccc(F)nc3)cc2c1Nc1cccc(C(F)(F)F)c1` [HTL-3-43, (E)-6-[3-(6-fluoro)pyridyl]-4-[3-(trifluoromethyl)phenyl]aminoquinoline-3-butenone], the melting point is 133 to 134 °C. In addition, in data set [1], the IC50 is > 200 µM. Also, the TD50 in the data set with RD cells worked out at 2.23 ± 0.08 µM.
On to `CC(C)c1ccc(-c2ccc3ncc4oc(=O)n(-c5cccc(C(F)(F)F)c5)c4c3c2)cc1` [HTL-5-35, 8-(4-isopropyl)phenyl-1-[3-(trifluoromethyl)phenyl]oxazolo[5,4-c]quinolin-2(1H)-one], for which the melting point was in the range of 219 to 220 °C. Also, in data set [1], the IC50 was > 200 µM. Further, the TD50 with RD cells was 69.36 ± 0.28 µM.
The like results for `CC(=O)/C=C/c1cnc2ccc(-c3ccc(O)cc3)cc2c1Nc1cccc(C(F)(F)F)c1` [HTL-3-11, (E)-6-(4-hydroxy)phenyl-4-[3-(trifluoromethyl)phenyl]aminoquinoline-3-butenone] were, in that order, 218 to 222 °C, > 200 µM and >200 µM.
Molecule `CCCc1ccc(-c2ccc3ncc(/C=C/C(C)=O)c(Nc4cccc(C(F)(F)F)c4)c3c2)cc1` [HTL-3-40, (E)-6-(4-propyl)phenyl-4-[3-(trifluoromethyl)phenyl]aminoquinoline-3-butenone] showed a melting point of 166 to 169 °C. In data set [1], the IC50 is > 200 µM. For the same molecule, the TD50 in the data set on RD cells stood at 0.83 ± 0.03 µM.
